Experimental findings from patent US20250018019A1, “TREATMENT OF INTERFERON DRIVEN INFLAMMATION” (The Provost, Fellows, Foundation Scholars and the other …, priority 2023, published 2025) are described below.

Type in all cases: cell-based, mouse
Assay [1] has as its system BMDMs. Nature of the assay: LC-MS steady-state metabolomics / fumarate levels in BMDMs. The following applies: BMDMs, AOAA 5 mM pre-treatment, LPS 4 h. The protocol: (§1) All compounds used DMSO as a vehicle except for 4-hydroxy tamoxifen (EtOH), NAC (PBS), and AOAA for tracing experiments (Media). LPS was used at a concentration of 100 ng/ml for indicated timepoints (2, 3, 4, 6, 8, 24, 48 h). FHIN1 (10 or 20 μM), MMF (50 or 100 μM), DMF (25 μM), AOAA (5 mM), oligomycin (10 μM), CCCP (50 μM) NAC (1 mM), and IMT1 (10 μM) pre-treatments were performed for 3 h prior the addition of LPS. Cells were treated with valinomycin (10 nM) 15 mins before LPS stimulation. Anti-CD210 or IgG control (10 μg/ml) antibodies were added to cells 1 h prior to LPS stimulation. Recombinant mouse IL-10 protein (100 ng/ml) was added to cells at the same time as LPS. Cells were treated with IFN-B1 (220 ng/ml) for 3 h. Cells were treated with C-178 (1 μM) 1 h prior to LPS stimulation or transfection with 2′3′-cGAMP (1.5 μg/ml) for 4 hrs to achieve cGAS-STING activation. Cells were treated with ODN 2088 (1 μM) for 1 hr prior to LPS stimulation or transfection with CPG ODN 1826 (1.5 μg/ml) to achieve TLR9 activation. 3 different timepoints of 4-hydroxy tamoxifen (TAM) (600 nM or 2 μM) or EtOH treatment were performed-these are specified in the individual figure legends. For ‘48 h’ treatments EtOH/TAM was added on day 5 of 6 during the BMDM differentiation protocol. On day 6 they were plated with EtOH/TAM (left overnight) and treated the following day. For ‘72 h’ treatments EtOH/TAM was added on day […] of 6 during the BMDM differentiation protocol. On day 6 they were plated with EtOH/TAM (left overnight) and treated the following day. For ‘96 h’ treatments EtOH/TAM was added on day […] of 6 during the BMDM differentiation protocol. On day 6 they were plated with EtOH/TAM and treated 2 days later.
BMDMs (3 independent mice) were plated at 0.5×10^6 cells/well in 12-well plates in technical triplicate per condition, treated as indicated, snap frozen and stored at −80° C. For metabolomics on cytosolic fraction, BMDMs were plated at 10×10^6 cells/10 cm dish and rapid fractionation was performed as previously reported^16. Metabolite extraction solution (MES) (methanol/acetonitrile/water, 50:30:20 v/v/v) was added (0.5 mL per 1×10^6 cells) and samples were incubated for 15 min on dry ice. The resulting suspension was transferred to ice-cold microcentrifuge tubes. Samples were agitated for 20 min at 4° C. in a thermomixer and then incubated at −20° C. for 1 h. Samples were centrifuged at maximum speed for 10 min at 4° C. The supernatant was transferred into a new tube and centrifuged again at maximum speed for 10 min at 4° C. The supernatant was transferred to autosampler vials and stored at −80° C. prior to analysis by LC-MS.
HILIC chromatographic separation of metabolites was achieved using a Millipore Sequant ZIC-PHILIC analytical column (5 μm, 2.1×150 mm) equipped with a 2.1×20 mm guard column (both […] particle size) with a binary solvent system. Solvent A was 20 mM ammonium carbonate, 0.05% ammonium hydroxide; Solvent B was acetonitrile. The column oven and autosampler tray were held at 40° C. and 4° C., respectively. The chromatographic gradient was run at a flow rate of 0.200 mL/min as follows: 0-2 min: 80% B; 2-17 min: linear gradient from 80% B to 20% B; 17-17.1 min: linear gradient from 20% B to 80% B; 17.1-22.5 min: hold at 80% B. Samples were randomized and analysed with LC-MS in a blinded manner and the injection volume was 5 μl. Pooled samples were generated from an equal mixture of all individual samples and analysed interspersed at regular intervals within sample sequence as a quality control. Metabolites were measured with a Thermo Scientific Q Exactive Hybrid Quadrupole-Orbitrap Mass spectrometer (HRMS) coupled to a Dionex Ultimate 3000 UHPLC or with Vanquish Horizon UHPLC coupled to an Orbitrap Exploris 240 mass spectrometer (both Thermo Fisher Scientific) via a heated electrospray ionization source. […]

Assay [2] relates to BMDMs. As to the kind of experiment: Stable isotope-assisted tracing (15N2-glutamine) in BMDMs. As to conditions: 15N2-glutamine tracing, LPS-treated BMDMs, LPS 4 h. Here is the method: All compounds used DMSO as a vehicle except for 4-hydroxy tamoxifen (EtOH), NAC (PBS), and AOAA for tracing experiments (Media). LPS was used at a concentration of 100 ng/ml for indicated timepoints (2, 3, 4, 6, 8, 24, 48 h). FHIN1 (10 or 20 μM), MMF (50 or 100 μM), DMF (25 μM), AOAA (5 mM), oligomycin (10 μM), CCCP (50 μM) NAC (1 mM), and IMT1 (10 μM) pre-treatments were performed for 3 h prior the addition of LPS. Cells were treated with valinomycin (10 nM) 15 mins before LPS stimulation. Anti-CD210 or IgG control (10 μg/ml) antibodies were added to cells 1 h prior to LPS stimulation. Recombinant mouse IL-10 protein (100 ng/ml) was added to cells at the same time as LPS. Cells were treated with IFN-B1 (220 ng/ml) for 3 h. Cells were treated with C-178 (1 μM) 1 h prior to LPS stimulation or transfection with 2′3′-cGAMP (1.5 μg/ml) for 4 hrs to achieve cGAS-STING activation. […]
BMDMs (3 independent mice) were plated at 0.5×10^6 cells/well in 12-well plates in technical triplicate per condition, treated as indicated in glutamine-free DMEM supplemented with U-^13C-glutamine or ^15N2-glutamine, respectively. For ^13C- and ^15N-tracing analysis, the theoretical masses of ^13C and ^15N isotopes were calculated and added to a library of predicted isotopes in Tracefinder 5.0. […]

In assay [3] the test system is BMDMs. As to the kind of experiment: ELISA of cytokine release from BMDMs. As to conditions: BMDMs pre-treated 3 h, LPS 4 h. The protocol:
as §1
Pre-designed silencer select siRNAs for Cgas (s103166), Tmem173 (s91058), Tlr3 (s100579), Tlr9 (s96268), As/(s99640), Tlr7 (s100720), Ddx58 (s106376), Ifih1 (s89787), Nrf2 (s70522), Atf4 (s62689) and negative control (4390843) were ordered from Thermo Fisher. siRNA sequences are given in Table S2. Cells were transfected with 50 nM siRNA using 5 μl lipofectamine RNAiMAX according to manufacturer's instructions (Thermo Fisher). Cells were transfected in medium without serum and antibiotics which was replaced with complete medium 8 hours later. Cells were subsequently left for at least a further 12 hours prior to treatment.
BMDMs were plated in the presence or absence of ultrapure ethidium bromide (100 ng/ml) and incubated for a further 6 days prior to treatment. Depletion of mtDNA was determined by genomic DNA isolation followed by qPCR using primers specific for areas of mitochondrial DNA (D-loop) and areas of mtDNA that are not inserted into nuclear DNA (Non-NUMT).
DuoSet ELISA kits for IL-1β, TNFα, IL-6, IL-10, and GDF15 were purchased from R&D Systems and were carried out according to the manufacturer's instructions with appropriately diluted cell supernatants added to each plate in duplicate or triplicate. IFN-β was determined using DuoSet ELISA kit from R&D Systems or Abcam (ab252363). Quantikine ELISA kit for IFN-β (R&D Systems) was used for determination of IFN-β concentration in serum samples and from human cells, and these were also carried out according to the manufacturer's instructions. Absorbance at 450 nm was quantified using a FLUOstar Optima plate reader. Corrected absorbance values were calculated by subtracting the background absorbance, and cytokine concentrations were subsequently obtained by extrapolation from a standard curve plotted on GraphPad Prism 9.2.0.

With `NOCC(=O)O` [AOAA, aminooxyacetic acid], in the assay with BMDMs [1], the “aspartate, asparagine, argininosuccinate levels following LPS stimulation” value is given as “reduced” and the “fumarate levels following LPS stimulation” value is recorded as “reduced”. Also, the “contribution of glutamine nitrogen to aspartate, asparagine, arginine and citrulline” value in the assay on BMDMs [2] is reported as “completely prevented”. In addition, in the assay on BMDMs [3], the IL-10 release entry is “modestly increased” and the TNF-α release entry is given as “reduced”.
